Data from ChEMBL document CHEMBL5393442, “Combined inhibition of amino acid transporters for inhibiting human plasmacytoid dendritic cell activity during autoimmunity” (2022).
The source made the active and inactive calls. The calls are words filed in the database; no cut-off is given here.

How the values were obtained:
[1] = system: Plasmacytoid dendritic cell; assay: Inhibition of mTORC1/mTORC2 in TLR9-activated human plasmacytoid dendritic cells at 1 uM assessed as decrease in CpG-A stimulated SLC7A11 expression; format: cell-based
[2] = target: T1, Cystine/glutamate transporter (Homo sapiens, UniProt Q9UPY5); assay: Inhibition of XCT (unknown origin)
T1 sequence (Q9UPY5 whole entry): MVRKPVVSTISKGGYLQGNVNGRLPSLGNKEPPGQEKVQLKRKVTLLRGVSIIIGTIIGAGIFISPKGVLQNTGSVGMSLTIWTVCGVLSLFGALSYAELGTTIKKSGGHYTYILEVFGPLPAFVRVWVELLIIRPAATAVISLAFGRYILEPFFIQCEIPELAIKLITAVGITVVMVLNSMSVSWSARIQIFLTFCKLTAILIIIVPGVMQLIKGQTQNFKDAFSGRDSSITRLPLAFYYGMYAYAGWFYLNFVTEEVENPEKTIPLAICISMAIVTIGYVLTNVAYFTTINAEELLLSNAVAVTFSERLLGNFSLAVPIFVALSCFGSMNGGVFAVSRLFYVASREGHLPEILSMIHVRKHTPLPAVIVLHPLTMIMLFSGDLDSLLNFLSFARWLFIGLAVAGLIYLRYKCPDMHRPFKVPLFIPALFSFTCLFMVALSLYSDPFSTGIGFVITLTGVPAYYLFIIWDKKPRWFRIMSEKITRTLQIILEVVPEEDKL

[3] = system: Plasmacytoid dendritic cell; assay: Inhibition of SLC7A5/SLC3A2 in CpG-A-stimulated human plasmacytoid dendritic cells at 10 uM assessed as decrease in kynurenine transport; format: cell-based
[4] = system: Plasmacytoid dendritic cell; assay: Inhibition of F1F0-ATP synthase in human plasmacytoid dendritic cells at 1 uM assessed as decrease in IFN-alpha production; format: cell-based
[5] = system: Plasmacytoid dendritic cell; assay: Inhibition of F1F0-ATP synthase in human plasmacytoid dendritic cells at 1 uM assessed as decrease in TNF production; format: cell-based
[6] = system: Plasmacytoid dendritic cell; assay: Inhibition of F1F0-ATP synthase in CpG-A-stimulated human plasmacytoid dendritic cells at 1 uM assessed as reduction in IFN-alpha production in presence of 10 uM heptelidic acid; format: cell-based
[7] = system: Plasmacytoid dendritic cell; assay: Inhibition of F1F0-ATP synthase in CpG-A-stimulated human plasmacytoid dendritic cells at 1 uM assessed as reduction in TNF production in presence of 10 uM heptelidic acid; format: cell-based
[8] = target: Large neutral amino acids transporter small subunit 1 (Homo sapiens) (UniProt Q01650); assay: Inhibition of human LAT1 at 100 uM relative to control
Sequence of Large neutral amino acids transporter small subunit 1 (Homo sapiens) (Q01650 whole entry): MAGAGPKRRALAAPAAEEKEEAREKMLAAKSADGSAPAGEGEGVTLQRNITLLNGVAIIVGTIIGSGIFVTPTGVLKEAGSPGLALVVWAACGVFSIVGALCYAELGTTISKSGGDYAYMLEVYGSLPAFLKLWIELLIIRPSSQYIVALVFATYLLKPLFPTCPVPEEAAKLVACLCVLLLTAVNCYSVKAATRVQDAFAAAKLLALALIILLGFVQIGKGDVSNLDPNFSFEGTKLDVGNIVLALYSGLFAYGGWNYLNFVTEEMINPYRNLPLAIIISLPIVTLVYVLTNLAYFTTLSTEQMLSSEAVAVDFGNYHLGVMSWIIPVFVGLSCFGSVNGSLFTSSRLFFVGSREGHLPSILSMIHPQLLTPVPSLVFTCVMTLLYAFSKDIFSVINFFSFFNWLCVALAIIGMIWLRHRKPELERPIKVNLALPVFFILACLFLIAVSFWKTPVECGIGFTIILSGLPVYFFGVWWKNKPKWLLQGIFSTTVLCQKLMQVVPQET

[9] = target: Tyrosine-protein kinase JAK2 (Homo sapiens) (UniProt O60674); assay: Inhibition of JAK2 in TLR9-activated human plasmacytoid dendritic cells at 20 nM assessed as decrease in CpG-A stimulated SLC7A11 expression; format: cell-based; details: Plasmacytoid dendritic cell
Sequence of Tyrosine-protein kinase JAK2 (Homo sapiens) (O60674 whole entry): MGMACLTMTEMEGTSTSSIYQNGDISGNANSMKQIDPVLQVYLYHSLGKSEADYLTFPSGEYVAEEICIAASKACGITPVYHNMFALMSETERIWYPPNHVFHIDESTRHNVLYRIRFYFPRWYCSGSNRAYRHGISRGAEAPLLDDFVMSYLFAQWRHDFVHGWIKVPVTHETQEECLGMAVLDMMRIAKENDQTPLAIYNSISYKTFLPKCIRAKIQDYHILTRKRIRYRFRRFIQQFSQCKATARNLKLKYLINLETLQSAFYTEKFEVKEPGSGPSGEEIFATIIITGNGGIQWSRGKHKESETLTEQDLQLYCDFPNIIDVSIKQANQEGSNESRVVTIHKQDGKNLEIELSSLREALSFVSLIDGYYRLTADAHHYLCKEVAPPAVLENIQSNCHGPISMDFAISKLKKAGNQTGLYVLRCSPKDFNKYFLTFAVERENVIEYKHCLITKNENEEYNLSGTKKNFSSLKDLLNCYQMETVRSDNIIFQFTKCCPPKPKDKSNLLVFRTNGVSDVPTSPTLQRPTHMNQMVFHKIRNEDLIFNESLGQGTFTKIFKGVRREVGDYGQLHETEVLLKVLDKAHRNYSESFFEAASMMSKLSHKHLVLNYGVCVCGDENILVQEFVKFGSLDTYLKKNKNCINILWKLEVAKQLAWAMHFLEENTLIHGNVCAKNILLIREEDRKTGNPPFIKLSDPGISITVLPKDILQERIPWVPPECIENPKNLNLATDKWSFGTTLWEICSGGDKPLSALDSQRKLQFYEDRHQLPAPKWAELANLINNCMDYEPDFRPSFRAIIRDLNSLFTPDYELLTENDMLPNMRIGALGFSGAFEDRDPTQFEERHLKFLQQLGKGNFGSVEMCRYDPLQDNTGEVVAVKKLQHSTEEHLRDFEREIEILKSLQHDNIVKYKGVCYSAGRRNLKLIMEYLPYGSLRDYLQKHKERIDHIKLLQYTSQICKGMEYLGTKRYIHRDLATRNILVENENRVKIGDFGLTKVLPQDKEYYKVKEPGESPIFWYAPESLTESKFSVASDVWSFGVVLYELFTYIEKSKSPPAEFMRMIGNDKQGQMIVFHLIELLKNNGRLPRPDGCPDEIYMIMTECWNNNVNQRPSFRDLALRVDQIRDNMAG

[10] = target: Tyrosine-protein kinase JAK2 (Homo sapiens) (UniProt O60674); assay: Inhibition of JAK2 in IL3- and CpG-A-activated human plasmacytoid dendritic cells at 20 nM assessed as decrease in ENPP2/IFNA2 expression; format: cell-based; details: Plasmacytoid dendritic cell
[11] = target: Tyrosine-protein kinase JAK2 (Homo sapiens) (UniProt O60674); assay: Inhibition of JAK2 in IL3- and CpG-A-activated human plasmacytoid dendritic cells at 20 nM assessed as decrease in MYO1E/IFNA2 expression; format: cell-based; details: Plasmacytoid dendritic cell
[12] = target: T2, mTORC1 (Homo sapiens) (UniProt P42345+Q8N122+Q9BVC4); details: Plasmacytoid dendritic cell, dose 250.0 nM
T2 sequence (Q8N122 whole entry, looked up, other chains not shown): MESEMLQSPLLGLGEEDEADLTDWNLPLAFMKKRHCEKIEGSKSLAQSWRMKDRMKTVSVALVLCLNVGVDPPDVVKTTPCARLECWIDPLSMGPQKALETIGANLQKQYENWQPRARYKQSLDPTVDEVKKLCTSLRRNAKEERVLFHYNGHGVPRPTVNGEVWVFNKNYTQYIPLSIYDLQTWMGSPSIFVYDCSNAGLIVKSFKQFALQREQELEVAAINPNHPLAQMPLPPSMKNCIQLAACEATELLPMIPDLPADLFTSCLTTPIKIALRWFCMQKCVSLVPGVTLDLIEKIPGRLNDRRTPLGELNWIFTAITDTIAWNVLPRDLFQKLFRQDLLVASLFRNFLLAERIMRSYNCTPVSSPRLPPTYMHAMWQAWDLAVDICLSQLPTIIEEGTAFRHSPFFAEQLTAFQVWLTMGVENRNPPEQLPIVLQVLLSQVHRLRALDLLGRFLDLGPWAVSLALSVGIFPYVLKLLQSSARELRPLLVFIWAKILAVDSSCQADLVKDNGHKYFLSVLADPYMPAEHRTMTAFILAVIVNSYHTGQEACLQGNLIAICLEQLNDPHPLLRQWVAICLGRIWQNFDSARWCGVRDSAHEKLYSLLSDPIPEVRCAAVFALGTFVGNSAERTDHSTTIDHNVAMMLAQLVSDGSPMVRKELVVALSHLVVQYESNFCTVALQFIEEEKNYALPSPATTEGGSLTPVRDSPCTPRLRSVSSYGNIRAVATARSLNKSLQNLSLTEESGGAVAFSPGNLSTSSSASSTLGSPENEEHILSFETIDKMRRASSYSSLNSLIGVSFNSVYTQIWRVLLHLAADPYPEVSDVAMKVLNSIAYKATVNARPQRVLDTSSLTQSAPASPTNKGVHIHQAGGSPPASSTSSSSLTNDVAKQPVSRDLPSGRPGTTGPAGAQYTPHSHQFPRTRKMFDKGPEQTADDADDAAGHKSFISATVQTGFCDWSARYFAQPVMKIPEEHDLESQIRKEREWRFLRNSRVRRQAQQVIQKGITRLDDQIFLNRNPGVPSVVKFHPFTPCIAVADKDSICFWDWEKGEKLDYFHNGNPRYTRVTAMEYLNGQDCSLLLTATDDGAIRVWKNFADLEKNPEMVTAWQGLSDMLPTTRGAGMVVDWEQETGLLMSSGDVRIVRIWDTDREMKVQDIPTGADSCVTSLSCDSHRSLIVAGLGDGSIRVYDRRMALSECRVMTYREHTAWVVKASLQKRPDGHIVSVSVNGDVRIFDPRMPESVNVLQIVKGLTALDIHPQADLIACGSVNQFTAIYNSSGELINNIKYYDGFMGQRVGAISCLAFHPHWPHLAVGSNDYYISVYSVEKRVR
T2 sequence (Q9BVC4 whole entry, looked up, other chains not shown): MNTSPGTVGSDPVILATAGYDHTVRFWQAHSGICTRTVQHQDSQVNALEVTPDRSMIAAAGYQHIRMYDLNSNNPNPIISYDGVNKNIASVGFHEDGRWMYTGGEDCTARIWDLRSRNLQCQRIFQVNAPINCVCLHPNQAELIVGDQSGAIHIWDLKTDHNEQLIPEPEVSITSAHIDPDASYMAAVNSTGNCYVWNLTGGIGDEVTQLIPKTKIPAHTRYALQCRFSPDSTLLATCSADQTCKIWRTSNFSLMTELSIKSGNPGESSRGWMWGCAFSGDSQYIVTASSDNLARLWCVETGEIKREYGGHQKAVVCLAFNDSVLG
Description: Inhibition of mTORC1 in CpG-A-stimulated human plasmacytoid dendritic cells at 250 nM assessed as decrease in lactate release

[13] = target: T2, mTORC1 (Homo sapiens); details: Plasmacytoid dendritic cell, dose 20.0 nM
Description: Inhibition of mTORC1 in CpG-A-stimulated human plasmacytoid dendritic cells at 20 nM assessed as decrease in lactate release

[14] = target: T3, Cystine/glutamate transporter (Homo sapiens) (UniProt Q9UPY5); assay: Inhibition of XCT in CpG-A-activated human plasmacytoid dendritic cells at 200 uM assessed as decrease in IFN-alpha production; format: cell-based; details: Plasmacytoid dendritic cell
T3 sequence (whole entry): T1 sequence (Q9UPY5 whole entry)

[15] = target: T3, Cystine/glutamate transporter (Homo sapiens); assay: Inhibition of XCT in CpG-A-activated human plasmacytoid dendritic cells at 200 uM assessed as decrease in TNF production; format: cell-based; details: Plasmacytoid dendritic cell
[16] = target: T3, Cystine/glutamate transporter (Homo sapiens); assay: Inhibition of XCT in CpG-A-activated human plasmacytoid dendritic cells at 200 uM assessed as decrease in S6 phosphorylation; format: cell-based; details: Plasmacytoid dendritic cell
[17] = target: T3, Cystine/glutamate transporter (Homo sapiens); assay: Inhibition of XCT in CpG-A-activated human plasmacytoid dendritic cells at 200 uM assessed as decrease in kynurenine uptake; format: cell-based; details: Plasmacytoid dendritic cell
[18] = target: T3, Cystine/glutamate transporter (Homo sapiens); assay: Inhibition of XCT in CpG-A-activated human plasmacytoid dendritic cells at 200 uM assessed as decrease in ENPP2 expression; format: cell-based; details: Plasmacytoid dendritic cell
[19] = target: T3, Cystine/glutamate transporter (Homo sapiens); assay: Inhibition of XCT in CpG-A-activated human plasmacytoid dendritic cells at 200 uM assessed as decrease in MYO1E expression; format: cell-based; details: Plasmacytoid dendritic cell
[20] = target: T3, Cystine/glutamate transporter (Homo sapiens); assay: Inhibition of XCT in CpG-A-activated human plasmacytoid dendritic cells at 100 uM assessed as decrease in IFN-alpha production in presence of 25 to 100 uM baricitinib; format: cell-based; details: Plasmacytoid dendritic cell
[21] = target: Tyrosine-protein kinase JAK2 (Homo sapiens) (UniProt O60674); assay: Inhibition of JAK2 in CpG-A-activated human plasmacytoid dendritic cells at 100 uM assessed as decrease in TNF production in presence of 25 to 100 uM baricitinib; format: cell-based; details: Plasmacytoid dendritic cell
[22] = target: T3, Cystine/glutamate transporter (Homo sapiens); assay: Inhibition of XCT in CpG-A-activated human plasmacytoid dendritic cells at 25 to 100 uM assessed as decrease in TNF production in presence of 100 uM sulfasalazine; format: cell-based; details: Plasmacytoid dendritic cell, dose 25-100 µM
[23] = target: T3, Cystine/glutamate transporter (Homo sapiens); assay: Inhibition of XCT in CpG-A-activated human plasmacytoid dendritic cells at 5 uM assessed as decrease in IFN-alpha production; format: cell-based; details: Plasmacytoid dendritic cell
[24] = target: T3, Cystine/glutamate transporter (Homo sapiens); assay: Inhibition of XCT in CpG-A-activated human plasmacytoid dendritic cells at 5 uM assessed as decrease in TNF production; format: cell-based; details: Plasmacytoid dendritic cell
[25] = target: T3, Cystine/glutamate transporter (Homo sapiens); assay: Inhibition of XCT in CpG-A-activated human plasmacytoid dendritic cells at 5 uM assessed as decrease in S6 phosphorylation; format: cell-based; details: Plasmacytoid dendritic cell
[26] = target: T3, Cystine/glutamate transporter (Homo sapiens); assay: Inhibition of XCT in CpG-A-activated human plasmacytoid dendritic cells at 5 uM assessed as decrease in kynurenine uptake; format: cell-based; details: Plasmacytoid dendritic cell
[27] = target: T3, Cystine/glutamate transporter (Homo sapiens); assay: Inhibition of XCT in CpG-A-activated human plasmacytoid dendritic cells at 1 uM assessed as decrease in IFN-alpha production; format: cell-based; details: Plasmacytoid dendritic cell
[28] = target: T3, Cystine/glutamate transporter (Homo sapiens); assay: Inhibition of XCT in CpG-A-activated human plasmacytoid dendritic cells at 1 uM assessed as decrease in TNF production; format: cell-based; details: Plasmacytoid dendritic cell
[29] = target: T3, Cystine/glutamate transporter (Homo sapiens); assay: Inhibition of XCT in CpG-A-activated human plasmacytoid dendritic cells at 10 uM assessed as decrease in ENPP2 expression; format: cell-based; details: Plasmacytoid dendritic cell
[30] = target: T3, Cystine/glutamate transporter (Homo sapiens); assay: Inhibition of XCT in CpG-A-activated human plasmacytoid dendritic cells at 10 uM assessed as decrease in MYO1E expression; format: cell-based; details: Plasmacytoid dendritic cell
[31] = target: Glyceraldehyde-3-phosphate dehydrogenase (Homo sapiens) (UniProt P04406); assay: Inhibition of GAPDH in CpG-A-stimulated human plasmacytoid dendritic cells at 10 uM assessed as reduction in TNF production; format: cell-based; details: Plasmacytoid dendritic cell
Sequence of Glyceraldehyde-3-phosphate dehydrogenase (Homo sapiens) (P04406 2-335 limits assumed): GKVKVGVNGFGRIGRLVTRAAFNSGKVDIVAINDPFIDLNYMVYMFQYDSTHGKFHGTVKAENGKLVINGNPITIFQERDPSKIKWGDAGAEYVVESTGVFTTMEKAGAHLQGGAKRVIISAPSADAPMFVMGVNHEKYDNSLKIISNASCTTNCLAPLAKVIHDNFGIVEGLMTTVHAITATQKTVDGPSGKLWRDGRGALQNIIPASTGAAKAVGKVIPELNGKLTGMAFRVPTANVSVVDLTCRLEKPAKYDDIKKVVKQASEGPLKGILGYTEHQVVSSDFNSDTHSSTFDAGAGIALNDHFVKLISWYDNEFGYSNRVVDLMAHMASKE

[32] = target: Glyceraldehyde-3-phosphate dehydrogenase (Homo sapiens) (UniProt P04406); assay: Inhibition of GAPDH in CpG-A-stimulated human plasmacytoid dendritic cells at 10 uM assessed as reduction in IFNa-alpha production; format: cell-based; details: Plasmacytoid dendritic cell
[33] = target: Glyceraldehyde-3-phosphate dehydrogenase (Homo sapiens) (UniProt P04406); assay: Inhibition of GAPDH in CpG-A-stimulated human plasmacytoid dendritic cells at 10 uM assessed as reduction in overall protein synthesis; format: cell-based; details: Plasmacytoid dendritic cell
[34] = target: Glyceraldehyde-3-phosphate dehydrogenase (Homo sapiens) (UniProt P04406); assay: Inhibition of GAPDH in CpG-A-stimulated human plasmacytoid dendritic cells at 10 uM assessed as reduction in secreted lactate levels; format: cell-based; details: Plasmacytoid dendritic cell
[35] = target: Glyceraldehyde-3-phosphate dehydrogenase (Homo sapiens) (UniProt P04406); assay: Inhibition of GAPDH in CpG-A-stimulated human plasmacytoid dendritic cells at 10 uM assessed as reduction in IFN-alpha production in presence of 1 uM oligomycin; format: cell-based; details: Plasmacytoid dendritic cell
[36] = target: Glyceraldehyde-3-phosphate dehydrogenase (Homo sapiens) (UniProt P04406); assay: Inhibition of GAPDH in CpG-A-stimulated human plasmacytoid dendritic cells at 10 uM assessed as reduction in TNF production in presence of 1 uM oligomycin; format: cell-based; details: Plasmacytoid dendritic cell
[37] = system: Plasmacytoid dendritic cell; assay: Inhibition of mTORC1/mTORC2 in CpG-A and IL-3-activated human plasmacytoid dendritic cells at 200 ng/mL assessed as decrease in SLC7A5 expression; format: cell-based
[38] = system: Plasmacytoid dendritic cell; assay: Inhibition of mTORC1/mTORC2 in CpG-A and IL-3-activated human plasmacytoid dendritic cells at 200 ng/mL assessed as decrease in SLC3A2 expression; format: cell-based
[39] = system: Plasmacytoid dendritic cell; assay: Inhibition of mTORC1/mTORC2 in CpG-A and IL-3-activated human plasmacytoid dendritic cells at 200 ng/mL assessed as decrease in IFN-alpha production; format: cell-based
[40] = system: Plasmacytoid dendritic cell; assay: Inhibition of mTORC1/mTORC2 in CpG-A and IL-3-activated human plasmacytoid dendritic cells at 200 ng/mL assessed as decrease in TNF production; format: cell-based
[41] = system: Plasmacytoid dendritic cell; assay: Inhibition of mTORC1/mTORC2 in IL-3 and CpG-A-activated human plasmacytoid dendritic cells at 200 nM assessed as decrease in decrease in ENPP2/IFNA2 expression; format: cell-based
[42] = system: Plasmacytoid dendritic cell; assay: Inhibition of mTORC1/mTORC2 in IL-3 and CpG-A-activated human plasmacytoid dendritic cells at 200 nM assessed as decrease in decrease in MYO1E/IFNA2 expression; format: cell-based

## Cc1cc(Nc2nc(N[C@@H](C)c3ncc(F)cn3)ncc2Cl)[nH]n1
[1]
  inhibition: Active

## Nc1c(/N=N/c2ccc(SSc3ccc(/N=N/c4cc(S(=O)(=O)O)c5ccccc5c4N)cc3)cc2)cc(S(=O)(=O)O)c2ccccc12
[2]
  IC50: 4.3 µM

## Nc1ccc(/N=N/c2ccc(-c3ccc(/N=N/c4ccc(N)c5ccc(S(=O)(=O)O)cc45)cc3)cc2)c2cc(S(=O)(=O)O)ccc12
[2]
  IC50: 4.3 µM

## NC1(C(=O)O)CC2CCC1C2 (stereo not given)
[3]
  inhibition: Active

## CC[C@H]1/C=C/C=C/C[C@@H](C)[C@H](O)[C@@](C)(O)C(=O)[C@@H](C)[C@H](O)[C@@H](C)C(=O)[C@@H](C)[C@H](O)[C@@H](C)/C=C/C(=O)O[C@@H]2[C@H](C)[C@H](CC1)O[C@]1(CC[C@H](C)[C@H](C[C@@H](C)O)O1)[C@H]2C
[4]
  inhibition: Active
[5]
  inhibition: inactive
[6]
  inhibition: Active
[7]
  inhibition: Active

## Nc1c(/N=N/c2ccc(I)cc2)cc(S(=O)(=O)O)c2ccccc12
[2]
  IC50: 14 µM

## FC(F)(F)Oc1ccc(/N=c2\ssnc2Cl)cc1Cl
[8]
  inhibition: > 90%

## CO[C@H]1CC2CC[C@@H](C)[C@@](O)(O2)C(=O)C(=O)N2CCCC[C@H]2C(=O)O[C@H]([C@H](C)C[C@@H]2CC[C@@H](O)[C@H](OC)C2)CC(=O)[C@H](C)/C=C(\C)[C@@H](O)[C@@H](OC)C(=O)[C@H](C)C[C@H](C)/C=C/C=C/C=C/1C
[9]
  inhibition: Active
[10]
  inhibition: Active
[11]
  inhibition: Active
[12]
  inhibition: Active
[13]
  inhibition: Active

## O=C(O)c1cc(/N=N/c2ccc(S(=O)(=O)Nc3ccccn3)cc2)ccc1O [SULFASALAZINE]
[14]
  inhibition: Active
[15]
  inhibition: Active
[16]
  inhibition: Active
[17]
  inhibition: Active
[18]
  inhibition: Active
[19]
  inhibition: Active
[20]
  inhibition: Active
[21]
  inhibition: Active
[2]
  IC50: 10.4 µM

## N#Cc1cc(Cl)ccc1/N=c1\ssnc1Cl
[8]
  inhibition: > 90%

## CCS(=O)(=O)N1CC(CC#N)(n2cc(-c3ncnc4[nH]ccc34)cn2)C1
[22]
  inhibition: Active

## CCOc1ccccc1-n1c(C(C)N2CCN(C(=O)COc3ccc(Cl)cc3)CC2)nc2ccccc2c1=O (stereo not given)
[23]
  inhibition: Active
[24]
  inhibition: Active
[25]
  inhibition: Active
[26]
  inhibition: Active
[27]
  inhibition: Active
[28]
  inhibition: Active
[29]
  inhibition: Active
[30]
  inhibition: Active

## CC(C)[C@H]1CC[C@@]2(CO2)[C@H]2C(=O)OCC(C(=O)O)=C[C@H]12
[31]
  inhibition: Active
[32]
  inhibition: Active
[33]
  inhibition: Active
[34]
  inhibition: Active
[35]
  inhibition: Active
[36]
  inhibition: Active

## Nc1c(/N=N/c2ccc(Oc3ccc(/N=N/c4cc(S(=O)(=O)O)c5ccccc5c4N)cc3)cc2)cc(S(=O)(=O)O)c2ccccc12
[2]
  IC50: 11 µM

## Nc1c(/N=N/c2ccc(Br)cc2)cc(S(=O)(=O)O)c2ccccc12
[2]
  IC50: 25 µM

## Nc1c(/N=N/c2ccc(Oc3ccccc3)cc2)cc(S(=O)(=O)O)c2ccccc12
[2]
  IC50: 14 µM

## CCC(=O)N1CCN(c2ccc(-n3c(=O)ccc4cnc5ccc(-c6cnc7ccccc7c6)cc5c43)cc2C(F)(F)F)CC1
[37]
  inhibition: Active
[38]
  inhibition: Active
[39]
  inhibition: Active
[40]
  inhibition: Active
[1]
  inhibition: Active
[41]
  inhibition: Active
[42]
  inhibition: Active
